Source: publication PMC8841740, “Fluorescent Ligand-Based Discovery of Small-Molecule Sulfonamide Agonists for GPR120” (Frontiers in Chemistry, 2022)

Columns and labels:
[1] = system: db/db mice; assay: Fasting blood glucose in db/db mice after 4 weeks of administration; assay type: in vivo; conditions: gavage once a day
Method: (§1) All animal studies were approved by the Ethics Committee and IACUC of Cheeloo College of Medicine, Shandong University, and were conducted in compliance with European Guidelines for the Care and Use of Laboratory Animals. After adaptive feeding for 10–15 days, the db/db mice were divided into positive control group (30 mg/kg), low content compound group (10 mg/kg), high content compound group (30 mg/kg), and negative control group (the same volume dosing solvent). These mice were administrated by gavage once a day (administration volume, 20 ml/kg) for four consecutive weeks. During the administration period, the fasting blood glucose (without food and water for 6 h) was measured twice a week by using a blood glucose meter. The blood glucose level was measured for four consecutive weeks. The data was processed with Graphpad 8.2 software ([Cox et al., 2017]; [Zhang et al., 2017]).

[2] = target: T1, GPR40 (Homo sapiens, UniProt O14842); assay: GPR40 Ca2+ flow assay in CHO cells with transient GPR40 gene; assay type: cell-based
T1 construct: expressed in transfected cells; host or cells: CHO (transient)
Method: Ca^2+ flow activity was determined in HEK293 cells stably transfecting the GPR120-Rluc gene. After incubating the cells for 24 h, the medium was removed from the plate, and the cells were washed with HBSS buffer (without Ca^2+ and Mg^2+). Subsequently, a 2-μM Fluo-4 AM working solution in HBSS buffer (without Ca^2+ and Mg^2+) was added to the plate (40 μl per well). After incubating the cells for 20 min at 37°C, compound solution at different concentrations in HBSS buffer (per well 160 μl) was added. Followed by a 40-min incubation, the solution was removed from the plate, HEPES buffer (200 μl per well) was added, and the fluorescence intensity was detected using the microplate reader (Ex: 488 nm; Em: 520 nm) ([Watterson et al., 2017]).
Ca^2+ flow activity was determined in CHO cells with transient GPR40 gene by the same method as well, in which the GPR40 agonist TAK875 was used as a positive control.

[3] = system: GPR120; assay: Bias of agonists (Gq versus β-arrestin2 pathway); assay type: cell-based; conditions: reference GSK137647A pathways P1 Gq, P2 β-arrestin2
From the text: The bias was quantified by Eq. 1, in which β is the bias factor, Emax is the maximum effect produced by the agonist, and Pl and P2 represents the Gq and β-arrestin2 signal pathway, respectively.
Formula 1: β=log((Emax,P1/EC50,P1EC50,P2/Emax,P2)lig×(Emax,P2/EC50,P2EC50,P1/Emax,P1)ref) (1)

[4] = target: T2, GPR120 (Homo sapiens, UniProt Q5NUL3); assay: GPR120 Ca2+ flow assay in HEK293 cells stably transfecting the GPR120-Rluc gene; assay type: cell-based; design: expressed in transfected cells
T2 sequence (Q5NUL3 1-361): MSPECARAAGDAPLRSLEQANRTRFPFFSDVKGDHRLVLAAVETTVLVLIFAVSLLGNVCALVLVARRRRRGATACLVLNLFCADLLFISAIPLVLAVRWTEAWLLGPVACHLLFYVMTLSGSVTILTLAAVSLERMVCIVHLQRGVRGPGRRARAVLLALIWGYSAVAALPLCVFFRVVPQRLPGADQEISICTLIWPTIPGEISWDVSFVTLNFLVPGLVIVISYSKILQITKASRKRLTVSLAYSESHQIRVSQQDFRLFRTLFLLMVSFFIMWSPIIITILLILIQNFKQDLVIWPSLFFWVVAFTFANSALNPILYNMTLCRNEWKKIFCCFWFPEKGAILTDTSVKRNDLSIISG
Method: Ca^2+ flow activity was determined in HEK293 cells stably transfecting the GPR120-Rluc gene. After incubating the cells for 24 h, the medium was removed from the plate, and the cells were washed with HBSS buffer (without Ca^2+ and Mg^2+). Subsequently, a 2-μM Fluo-4 AM working solution in HBSS buffer (without Ca^2+ and Mg^2+) was added to the plate (40 μl per well).

[5] = Weight changes of db/db mice during four weeks of administration; assay type: in vivo
Method: as §1

[6] = target: T2, GPR120; assay: Preliminary screening of agonists by BRET competition with probe N1; assay type: binding; design: expressed in transfected cells; conditions: 10 μM compound, probe N1 400 nM
Method: HEK293 cells stably transfected with the GPR120-Rluc gene were seeded in a black 96-well plate (100 μl, 2 × 10^4 cells per well). After a 24-h incubation, the medium was removed, probe N1 (400 nM, 50 μl per well) was added, and 10 μM of the compound was added after a 30-min incubation as well. Followed by a 40-min incubation, coelenterazine (final concentration: 10 μM, 50 μl per well) was added to the plate. Afterward, the fluorescence intensity was measured at 450 and 550 nm with the microplate reader after another 10-min incubation.

[7] = target: T2, GPR120; assay: Fluorescence imaging in HEK293 cells (stably transfected with GPR120) and PC-3 cells; assay type: cell-based; design: expressed in transfected cells
Method: HEK293 and PC-3 cells were seeded in fluorescent confocal dishes (5 × 10^3 per well). After the cells were iron-walled, the medium was removed from the dishes, the cells were washed once with a serum-free medium, and the probe was added. After incubating the cells for 10 min, the confocal dishes were observed by an inverted fluorescence microscope.

[8] = system: db/db mice; assay: Glucose tolerance test in db/db mice; assay type: in vivo
Method: On the last day of the dosing cycle, the fasting blood glucose of mice was measured (without food and water for 6 h), and glucose solution (100 mg/kg) was injected. The blood glucose was measured at […] (5, 10, 30, 60, and 120 min). Finally, the area under the curve was analyzed with SPSS 24 software.

[9] = target: T2, GPR120; assay: BRET activity test (β-arrestin-2 recruitment, GPR120-YFP / β-arrestin-2-Rluc in HEK293 cells); assay type: cell-based; design: host or cells: HEK293 (transfected with both plasmids)
Method: GPR120-YFP and β-arresting-2-Rluc plasmids were transfected into HEK293 cells. After a 24-h incubation, the cells were seeded in a black 96-well plate (100 μl, 20,000 cells per well). Followed by a 24-h incubation, the solution was removed from the plate, and compounds with different concentrations (100 μl per well) and coelenterazine (10 μM, 100 μl per well) were added, followed by the fluorescence intensity was measured at 460 and 520 nm with the microplate reader ([Christiansen et al., 2016]; [Hill et al., 2018]).

[10] = target: T2, GPR120; assay: BRET kinetic binding experiment of probe N1; design: expressed in transfected cells
Method: HEK293 cells stably transfecting the GPR120-Rluc gene were seeded in two entirely black 96-well plates (100 μl, 2 × 10^4 cells per well). After a 24-h incubation, the medium was removed from the non-specific plate, coelenterazine was added to (final concentration: 10 μM, 50 μl per well) the plates, and BRET value was measured after a 5-min incubation. Probe N1 (500 nM, 100 μl per well) was then added, and the BRET value was recorded in a 30-s interval for 6 minutes. Finally, GSK137647A was added (50 μl per well), and BRET value was measured in a 30-s interval for 30 min.

[11] = Optical property of fluorescent probes; assay type: physicochemical
Method: The stocking solution of probes was diluted with acetonitrile to 40 μM, and their ultraviolet absorption spectrum was scanned with an ultraviolet spectrophotometer. Secondly, the excitation and emission spectra of probes at 10, 20, 30, and 40 μM with PBS buffer were measured with a microplate reader. Moreover, the excitation and emission spectrum were recorded in four solvents: MeCN, DMSO, H2O, and EA, respectively.

[12] = target: T2, GPR120; assay: BRET saturation experiment of probe N1; design: expressed in transfected cells; conditions: 15 μM GSK134647A for non-specific binding
Method: HEK293 cells stably transfecting the GPR120-Rluc gene were seeded in two black 96-well plates (100 μl, 2 × 10^4 cells per well). After incubating the cells for 24 h, the medium of the non-specific plate was removed, and positive control GSK134647A (15 μM, 50 μl per well) was added into each well. After a 40-min incubation, the medium was removed, and probe N1 was added into two plates (100 μl per well). Followed by incubation for 40 min, coelenterazine was added to the plates (final concentration: 10 μM, 100 μl per well for specific plates; 50 μl per well for non-specific plates). Finally, the fluorescence intensity was measured at 460 and 520 nm with the microplate reader after a 10-min incubation ([Christiansen et al., 2016]).

[13] = system: GPR120; conditions: cited from earlier work
[14] = system: FFA1; design: method as in Sparks et al., 2014; conditions: in Figure 3; ref Sparks et al., 2014; cited from earlier work
[15] = system: FFA4; design: method as in Sparks et al., 2014; conditions: in Figure 3; ref Sparks et al., 2014; cited from earlier work
[16] = target: T2, GPR120; assay: BRET competitive binding experiment with probe N1; design: expressed in transfected cells; conditions: probe N1 400 nM, read-out: pKi (N1) (converted)
Method: HEK293 cells stably transfected with the GPR120-Rluc gene were seeded in a black 96-well plate (100 μl, 2 × 10^4 cells per well). After the cells were incubated for 24 h, the medium was removed, and probe N1 (400 nM, 50 μl per well) was added. […] Followed by a 40-min incubation, coelenterazine was added to (final concentration: 10 μM, 50 μl per well) the plates. Thenceforward, the fluorescence intensity was measured at 450 and 550 nm with the microplate reader after a 10-min incubation.

[17] = GPR120, Ca2+ flow, HEK293 GPR120-Rluc cells, read-out: pEC50 Ca2+ assay (converted)
[18] = GPR120, β-arrestin-2 activity test, read-out: pEC50 BRET (converted)

O=S(=O)(Nc1ccc(F)cc1)c1ccc(-c2ccc(OC(F)(F)F)cc2)cc1 [Compound D5, N-(4-Fluorophenyl)-4′-(Trifluoromethoxy)-[1,1′-Biphenyl]-4-Sulfonamide]
fasting blood glucose-lowering level compared with GSK137647A ([1]; 10 mg/kg): the same blood glucose-lowering level | fasting blood glucose-lowering level compared with GSK137647A ([1]; 30 mg/kg): a higher blood-glucose-lowering level | EC50 ([2]; CHO cells, GPR40, read-out: FFA1 (Ca2+ pEC50) (converted)): > 50.1 µM | bias (bias factor, Gq vs β-arrestin2) [3]: relatively biased towards the Gq pathway | Emax (FFA4 Ca2+) ([4]; GSK137647A used as a standard): 1.22 | EC50 ([4]; Table 3, read-out: FFA4 (Ca2+ pEC50) (converted)): 5.37 nM | weight change ([5]; 10 mg/kg): reached a stable level in the fourth week | weight change ([5]; 30 mg/kg): decreased in the fourth week | inhibition rate in BRET screening compared with GSK137647A [6]: higher than GSK137647A | fluorescence intensity of N1 after co-incubation (competitive cell imaging) ([7]; N1 0.5 μM and D5 10 μM, HEK293 cells stably transfected with GPR120): decreased significantly | reduction of blood glucose AUC0–120 min ([8]; 10 mg/kg): 15.3% | reduction of blood glucose AUC0–120 min ([8]; 30 mg/kg): 30.3% | Emax (FFA4 β-arrestin2) ([9]; GSK137647A used as a standard): 1.12 | EC50 ([9]; Table 3, read-out: FFA4 (β-arrestin2 pEC50) (converted)): 34.7 nM | melting point: 148 to 149 °C

Cc1cc(C)c(NS(=O)(=O)c2ccc(NCCN3C(=O)c4cccc5c(N(C)C)ccc(c45)C3=O)cc2)c(C)c1 [Compound N1, 4-((2-(6-(Dimethylamino)-1,3-dioxo-1H-benzo[de]isoquinolin-2(3H)-yl)ethyl)amino)-N-mesitylbenzenesulfonamide]
Ca2+ response to GPR40 compared with TAK875 ([2]; TAK875 as positive control): much lower than that of TAK875 | EC50 [4, 17]: 891 nM | fluorescence intensity in cell imaging ([7]; HEK293 and PC-3 cells): much greater than that of N2 and N3 | time to reach a stable state of dissociation from GPR120 ([10]; after adding excess GSK137647A): 30 min | Kd ([10]; kinetic binding experiment): 273 nM | time for binding to GPR120 to reach saturation ([10]; probe 500 nM): ≤ 6 min | koff ([10]; probe 500 nM, dissociation by GSK137647A (10 μM), read-out: off-rate koff (converted)): 0.00113 s⁻¹ | kon ([10]; probe 500 nM, read-out: on-rate kon (converted)): 4150 M⁻¹ s⁻¹ | λabs ([11]; MeCN): 419 nm | Φ (absolute quantum yield) ([11]; PBS): 3.73% | λem ([11]; PBS): 562 nm | λex ([11]; PBS): 444 nm | SS (stokes shift) ([11]; PBS buffer (pH = 7.4)): 118 nm | EC50 [9, 18]: 427 nM | melting point: 230 to 231 °C | Kd [12]: 1120 ± 600 nM

COc1ccc(S(=O)(=O)Nc2c(C)cc(C)cc2C)cc1 [GSK137647A, reference compound]
pEC50 (Literature) [13]: 6.30 ± 0.2^16 | EC50 [4, 17]: 44.7 nM | pEC50 (Ca2+ assay) ([4]; GPR120, Table 2): 7.35 ± 0.59 | FFA1 Human pEC50 [14]: < 4.5 | FFA4 Human pEC50 [15]: 6.3(0.17) | reduction of blood glucose AUC0–120 min ([8]; 30 mg/kg): 19.3% | Ki [16]: 110 nM | EC50 [9, 18]: 178 nM
